Experimental data published in article PMC6412891, “Synthesis and Biological Evaluation of Novel Thiazolyl-Coumarin Derivatives as Potent Histone Deacetylase Inhibitors with Antifibrotic Activity” (Molecules, 2019).

Columns and labels:
[1] = system: procollagen type I expression in CFs; assay: Procollagen type I expression levels in cardiac fibroblasts, western blot; type: cell-based, rat; conditions: for procollagen type I expression levels: 5 μM for 48 h, absence of TGF-β1, vs. control; for procollagen type I expression levels induced by TGF-β1: derivatives 5 μM (TSA 0.1 μM) for 48 h in presence of TGF-β1
Experimental: In CFs collagen type I secretion is a hallmark of cardiac fibrosis development, which is regulated by HDACs. […] For this purpose, a fixed concentration of 5a, 6a, 7a and 8a derivatives in presence/absence of TGF-β1 were studied, and procollagen type I expression levels were measured by using the western blot technique. TSA was used as control and also for comparative purposes. In Figure 5 (A and B), in the upper panel representative photographs of procollagen type I expression level and GAPDH (used as charge control) are shown, whereas in the lower panel the graphic analyses are observed.
(§1) For the analysis of the protein expression of histone H4–acetylated (ac–H4) and total H4 histone, a number of 1 × 10^6 of CFs seeded in 60 mm plates was used, which were incubated with the inhibitory compounds at a concentration of 10 μM, in the absence/presence of TGF–β1(5ng/mL) for 4 h. Subsequently, total histones were extracted by the technique of saline precipitation (high salt extraction). Briefly, CFs were scraped from the plates with 1 mL of cold PBS transferring their contents to Eppendorf tubes to be centrifuged for 60 s at 1500 rpm at 4 °C and re–suspended in 400 μL of cold buffer A (10 mM 4-(2-hydroxyethyl)-1-piperazineethanesulfonic acid-KOH (HEPES-KOH) adjusted to pH 7.9, 1.5 mM MgCl2, 10 mM KCl, 0.5 mM dithiothreitol and 0.2 mM phenylmethylsulfonyl fluoride (PMSF). The suspension is left on ice for 10 min and then placed in the vortex for 10 s. The samples were centrifuged for 60 s, subsequently discarding the supernatant fraction. The obtained pellet was re-suspended in 60 μL of cold C buffer (20 mM HEPES-KOH adjusted to pH 7.9, 25% glycerol, 420 mM NaCl, 1.5 mM MgCl2, 0.2 mM EDTA, dithiothreitol 0.5 mM and 0.2 mM PMSF) and placed on ice for 20 min for saline precipitation. Cell debris is removed by centrifugation for 120 s at 1500 rpm at 4 °C and the supernatant fraction, which contains the DNA binding proteins, is stored at minus 20 °C. For the analysis of α–SMA and procollagen type I expression levels, 3×10^5 CFs seeded in 35 mm plates were used, which were incubated together with inhibitor compounds at a 5 μM, in the absence/presence of TGF–β1 (5 ng/mL) for 48 h. To obtain the total proteins, the CFs were washed three times with cold PBS, then scraped and lysed with 50 μL of radio inmuno-precipitation assay (RIPA) lysis buffer (10 mM Tris–HCl pH 7.2, 5 mM EDTA, 150 mM NaCl, Triton X–100 1%, sodium dodecyl sulfate (SDS) 0.1%, deoxycholate 1%, leupeptin 2 μg/mL, aprotinin 10mM, PMSF 1mM and Na3VO4 100μM). The solution was centrifuged for 15 min at 10,000 rpm and at 4 °C. The supernatant fraction containing the total proteins was stored at minus 20 °C. The concentration of proteins obtained was determined by spectrophotometry at 570 nm, using the Bradford method (Bio-Rad, Hercules, CA, USA).
CFs proteins (25 μg), were subjected to 10% sodium dodecyl sulfate-polyacrylamide gel electrophoresis and finally transferred onto a nitrocellulose membrane (Millipore, Billerica, MA, USA). The membrane was washed twice with tris–buffered saline solution containing 0.1% Tween 20 (TBST). After being blocked with TBST containing 5% nonfat milk for 40 min, the membrane was incubated with primary antibodies in TBST/1% nonfat milk at 4 °C overnight. The membrane was washed three times with TBST for a total of 15 min and then incubated with primary antibodies (ac–H4, H4 total, α-SMA, procollagen type I and GAPDH). Then the membrane was incubated with goat anti–rabbit or anti-mouse IgG antibodies conjugated with horseradish (diluted 1:1000) for 1 h at room temperature. Signals were developed with ECL reagents and exposure to photographic film.
Figure 5 CTz non–substituted inhibit procollagen type I expression levels in cardiac fibroblasts. […] (B) CFs were exposed to 5a, 6a, 7a and 8a at 5 μM for 48 h in presence of TGF–β1. Procollagen type I expression levels were measured by western blot. GAPDH was used as control load.

[2] = system: histone H4-acetylated in CFs; assay: Histone H4-acetylated expression in cardiac fibroblasts, western blot; type: cell-based, rat; conditions: 5 μM for 8 h, vs. control
Experimental: For this purpose, CFs of neonatal rats were incubated in the presence/absence of the 5a, 6a, 7a and 8a derivatives, and the expression of histone H4–acetylated was measured using the western blot technique.
as §1, with “which were incubated with the inhibitory compounds at a concentration of 10 μM, in the absence/presence of TGF–β1(5ng/mL) for 4 h.” left out
CFs proteins (25 μg), were subjected to 10% sodium dodecyl sulfate-polyacrylamide gel electrophoresis and finally transferred onto a nitrocellulose membrane (Millipore, Billerica, MA, USA). The membrane was washed twice with tris–buffered saline solution containing 0.1% Tween 20 (TBST). […]
Figure 3 CTz non–substituted derivatives inhibit histone H4 acetylation. […] Nuclear extracts were isolated and histone H4 acetylation expression levels were measured by western blot. […]

SMILES | procollagen type I expression levels [1] | procollagen type I expression levels induced by TGF-β1 [1] | histone H4-acetylated expression [2]
O=C(CCCCC(=O)Nc1nc(-c2cc3ccccc3oc2=O)cs1)NO [Compound 8a, 5-[4-(2-Oxo-2H-chromen-3-yl)-thiazol-2-yl-carbamoyl]-N-hydroxypentanamide] | decreased in a statistically significant manner | decreased, close to control levels | increase in a statistically significant manner
O=C(CCCCC1CCSS1)Nc1nc(-c2cc3ccccc3oc2=O)cs1 (centres unmarked) [Compound 5a, 5-[1,2]-Dithiolan-3-yl-N-[4-(2-oxo-2H-chromen-3-yl)-thiazol-2-yl]-pentanamide] | decreased in a statistically significant manner | decreased, close to control levels | increase in a statistically significant manner
O=C(Nc1nc(-c2cc3ccccc3oc2=O)cs1)c1ccc(O)c(O)c1 [Compound 6a] | decreased in a statistically significant manner | decreased, close to control levels | increase in a statistically significant manner
O=C(O)CCCCC(=O)Nc1nc(-c2cc3ccccc3oc2=O)cs1 [Compound 7a] | had no effect | – | had no effect
